Laboratory results as given in US20160095837A1, “MODULATION OF MITOCHONDRIAL CALCIUM UNIPORTER ACTIVITY FOR TREATING AND PREVENTING ARRHYTHMIAS” (priority 2014, published 2016).

Tests used:
[1] = tested on: mitochondrial Ca2+ concentration ([Ca2+]mito); test: Mitochondrial Ca2+ measurement with mt-pericam in cultured SAN cells; type: cell-based, mouse; settings: Ru360 dialysis
Description: (§1) SAN cells were placed in Tyrode's solution at 36±0.5° C. and were identified by their characteristic morphology (spindle or spider shape) and spontaneous activity. SAN cells were identified electrophysiologically by spontaneous action potentials with a slow depolarizing phase 4 and the hyperpolarization-activated current (If).^27 Spontaneous action potentials, If and ICa were recorded using the perforated (amphotericin B or β-escin in studies requiring dialysis of Ru360 and/or ATP) patch-clamp technique^28 on single SAN cells at 36±0.5° C. in Tyrode's solution. Intracellular Ca^2+ transients were recorded from single SAN cells using Fura-2 AM excited at 340 nm and 380 nm and emitted and 510 nm. Endogenous NADH from single SAN cells was measured by excitation at 350 nm and recording emitted light at 460 nm.^29 Mitochondrial Ca^2+ was measured at 535 nm from mt-pericam expressing SAN cells exited at 415 nm^20. Mitochondrial Ca^2+ entry was measured in cell membrane permeabilized cardiomyocytes isolated from DN-MCU transgenic, wild type mice and from HEK293 cells using Calcium green-5N^30.
Freshly isolated mouse SAN tissue was cut into small pieces and put into 35 mm tissue culture plates with DMEM. […] Expression of the recombinant ratio-5mt-pericam and DN-MCU in SAN cells was detected by GFP fluorescence. […]

[2] = tested on: Ca2+ uptake into mitochondria in intact myocytes; settings: incubation with ~10 μM Ru360 for 30 min; cited from earlier work
[3] = tested on: HCN4 inward current (If); test: If current recording in SAN cells; type: cell-based, mouse; settings: Ru360 dialysis
Description: as §1
Spontaneous action potentials (APs) and If were recorded using the perforated (amphotericin B or β-escin) patch-clamp technique^28 on single SAN cell at 36±0.5° C. in Tyrode's solution (0.5 mM BaCl2 was added to the bath solution when recording If^32). […]

[4] = biological target: mitochondria; settings: read-out: Kd, binding to mitochondria; cited from earlier work

## (μ)[(HCO2)(NH3)4Ru]2OCl3) [Ru360]
[1]
  ISO-induced increase in [Ca2+]mito: prevented
[2]
  Block of Ca2+ uptake into mitochondria in intact myocytes: completely blocks
[3]
  If responses to ISO: not reduced
[4]
  Kd: 0.34 nM
